In US20190060249A1 (priority 2017, published 2019):

Molecular target: T1, ALDH3A1 (Homo sapiens, UniProt P30838)
T1 sequence (P30838 1-453): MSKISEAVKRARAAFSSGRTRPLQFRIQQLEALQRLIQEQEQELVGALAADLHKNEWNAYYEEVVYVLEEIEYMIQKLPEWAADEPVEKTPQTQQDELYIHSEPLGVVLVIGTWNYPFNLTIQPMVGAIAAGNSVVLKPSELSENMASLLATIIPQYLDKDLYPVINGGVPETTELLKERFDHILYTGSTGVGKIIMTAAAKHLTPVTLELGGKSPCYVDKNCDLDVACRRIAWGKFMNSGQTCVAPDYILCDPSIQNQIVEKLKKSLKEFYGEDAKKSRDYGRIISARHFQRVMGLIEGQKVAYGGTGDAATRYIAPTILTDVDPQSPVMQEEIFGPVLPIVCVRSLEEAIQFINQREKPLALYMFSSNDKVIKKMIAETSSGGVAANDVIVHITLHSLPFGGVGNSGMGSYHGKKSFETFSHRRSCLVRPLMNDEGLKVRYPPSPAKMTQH
Test: ALDH enzymatic assay (spectrophotometric), recombinant ALDH3A1
Assay type: biochemical
Details: 10 mM acetaldehyde, propionaldehyde, benzaldehyde, cinnamaldehyde, decanal, heptaldehyde or 200 μM 4-hydroxynonenal; 100 μM compound
Excerpt: To determine if ALDH3A1 activation is sufficient to protect salivary glands from radiation-induced dysfunction, a library of 135 traditional Chinese medicine extracts donated from Sun Ten Pharmaceutical Co., Taiwan, was screened using a spectroscopic enzyme activity assay and purified recombinant ALDH3A1. […] We then conducted high performance liquid chromatography (HPLC) fractionation of the extracts and nuclear magnetic resonance (NMR) characterization of the fractions. Based on the NMR fingerprint, we identified known constituents of similar fingerprints and purchased the commercially available compounds to test using the enzyme activity assay.
ALDH enzymatic assay: ALDH1A1, ALDH1A2, 2, 3A1, 3A2, 4A1, 5A1, 7A1 were measured as previously described using 5 μg/ml of recombinant protein (Chen, C. H., Cruz, L. A., and Mochly-Rosen, D. (2015) Pharmacological recruitment of aldehyde dehydrogenase 3A1 (ALDH3A1) to assist ALDH2 in acetaldehyde and ethanol metabolism in vivo. Proceedings of the National Academy of Sciences of the United States of America 112, 3074-3079). […] Assays were conducted in 50 mM NaPPi buffer (pH 7.4) in the presence of 2.5 mM NAD^+ and 10 mM substrate and measured in triplicate at 25° C. Dose response curve fits and EC50's were calculated using GraphPad Prism 7 software.
Activity measured in presence of compound concentrations from 6 nM to 400 μM.

C=CCc1ccc2c(c1)OCO2 [Alda-89, safrole, reference compound]
substrate specificity of increase in ALDH3A1 catalytic activity: only increase the catalytic activity of ALDH3A1 towards small aldehydes like acetaldehyde and propionaldehyde but not aromatic or long-chain aldehydes
